Source: article PMC11869342, “Design and synthesis of novel HDAC6 inhibitor dimer as HDAC6 degrader for cancer treatment by palladium catalysed dimerisation” (Journal of Enzyme Inhibition and Medicinal Chemistry, 2025)

Key:
PC-3 cells = assay: Sulforhodamine B (SRB) assay, PC-3; assay type: cell-based; settings: Homo sapiens; PC-3 cells, SRB, 48 h; read-out: GI50 con. ± SEM PC-3
Description: (§1) The A549 and PC-3 human lung and prostate cancer cell lines were acquired from the American Type Culture Collection (Rockville, MD). […] The cultures were kept in a 37 °C incubator with 5% CO2. When the adherent cultures reached 80% confluence, they were passaged using 0.05% trypsin-EDTA. PC-3 and A549 cells were seeded into 96-well plates in RPMI medium with 5% (v/v) foetal bovine serum for 24 h. Cells in partial wells were fixed with 10% trichloroacetic acid (TCA) to represent the initial time of compound treatment. The cells were treated with or without the indicated compound for 48 h and then were fixed with 10% TCA. After the washout with ddH2O and air-dried, SRB at 0.4% (w/v) in 1% acetic acid was added for staining. Unbound SRB was washed with 1% acetic acid and SRB-bounded cells were solubilised with 10 mM Tris base. The absorbance was read at a wavelength of 515 nm for the determination of cell growth.

A549 cells = assay: Sulforhodamine B (SRB) assay, A549; assay type: cell-based; settings: Homo sapiens; A549 cells, SRB, 48 h; read-out: GI50 con. ± SEM A549
Description: as §1

Ac-α-tubulin = assay: Western blotting of Ac-α-tubulin in PC-3 cells; assay type: cell-based, human; settings: 30 μM, 24 h
Description: Figure 3. Western blotting analysis of (a) HDAC6 protein in PC-3 cells treated with various dimer compounds at 30 μM for 24 h, (b) Ac-α-tubulin protein in PC-3 cells treated with various dimer compounds at 30 μM for 24 h, (c) LC-3 I, LC-3 II, and p62 proteins in PC-3 cells treated with various dimer compounds at 30 μM for 24 h, (d) PARP-1 and Caspase-3 proteins in PC-3 cells treated with various dimer compounds at 30 μM for 24 h, (e) p-BUBR1^S670 and p-BUBR1^T680 proteins in PC-3 cells treated with various dimer compounds at 30 μM for 24 h. Glyceraldehyde 3-phosphate dehydrogenase (GAPDH) was used as the loading control.
After compound treatment, the cells were harvested and centrifuged. […] The supernatants quantified by Bio-Rad protein assay kit (Bio-Rad Laboratories, Hercules, CA) were mixed with sample buffer (0.3 M Tris pH6.8, 10% SDS, 50% glycerol, 10% β-mercaptoethanol, and 0.02% bromophenol blue) and heated at 95 °C for 10 min. The protein (30 µg) was separated by electrophoresis in 8% or 12% SDS-PAGE, transferred to PVDF membranes, and detected with specific antibodies (1:1000 dilution for the first and 1:7000 for the second antibodies). The immunoreactive proteins were detected with an enhanced chemiluminescence detection kit (Amersham, Buckinghamshire, UK) and the images were captured by ChemiDoc™ MP System (Bio-Rad Laboratories, Hercules, CA).

[1] = Solubility as observed when conducting assays; assay type: physicochemical
HDAC6 = target: T1, HDAC6 (Homo sapiens, UniProt Q9UBN7); assay: HDAC enzyme activity assay (Reaction Biology), HDAC6; assay type: biochemical; parameters: Full-length recombinant hHDAC 6 was expressed in a baculovirus expression system in SF9 cells; purchased Reaction Biology Corporation (Malvern, PA); host or cells: baculovirus / SF9 insect cells; settings: full-length recombinant hHDAC 6, RHKKAc substrate 50 μM, 2 h at 30 °C
T1 sequence (Q9UBN7 1-1215): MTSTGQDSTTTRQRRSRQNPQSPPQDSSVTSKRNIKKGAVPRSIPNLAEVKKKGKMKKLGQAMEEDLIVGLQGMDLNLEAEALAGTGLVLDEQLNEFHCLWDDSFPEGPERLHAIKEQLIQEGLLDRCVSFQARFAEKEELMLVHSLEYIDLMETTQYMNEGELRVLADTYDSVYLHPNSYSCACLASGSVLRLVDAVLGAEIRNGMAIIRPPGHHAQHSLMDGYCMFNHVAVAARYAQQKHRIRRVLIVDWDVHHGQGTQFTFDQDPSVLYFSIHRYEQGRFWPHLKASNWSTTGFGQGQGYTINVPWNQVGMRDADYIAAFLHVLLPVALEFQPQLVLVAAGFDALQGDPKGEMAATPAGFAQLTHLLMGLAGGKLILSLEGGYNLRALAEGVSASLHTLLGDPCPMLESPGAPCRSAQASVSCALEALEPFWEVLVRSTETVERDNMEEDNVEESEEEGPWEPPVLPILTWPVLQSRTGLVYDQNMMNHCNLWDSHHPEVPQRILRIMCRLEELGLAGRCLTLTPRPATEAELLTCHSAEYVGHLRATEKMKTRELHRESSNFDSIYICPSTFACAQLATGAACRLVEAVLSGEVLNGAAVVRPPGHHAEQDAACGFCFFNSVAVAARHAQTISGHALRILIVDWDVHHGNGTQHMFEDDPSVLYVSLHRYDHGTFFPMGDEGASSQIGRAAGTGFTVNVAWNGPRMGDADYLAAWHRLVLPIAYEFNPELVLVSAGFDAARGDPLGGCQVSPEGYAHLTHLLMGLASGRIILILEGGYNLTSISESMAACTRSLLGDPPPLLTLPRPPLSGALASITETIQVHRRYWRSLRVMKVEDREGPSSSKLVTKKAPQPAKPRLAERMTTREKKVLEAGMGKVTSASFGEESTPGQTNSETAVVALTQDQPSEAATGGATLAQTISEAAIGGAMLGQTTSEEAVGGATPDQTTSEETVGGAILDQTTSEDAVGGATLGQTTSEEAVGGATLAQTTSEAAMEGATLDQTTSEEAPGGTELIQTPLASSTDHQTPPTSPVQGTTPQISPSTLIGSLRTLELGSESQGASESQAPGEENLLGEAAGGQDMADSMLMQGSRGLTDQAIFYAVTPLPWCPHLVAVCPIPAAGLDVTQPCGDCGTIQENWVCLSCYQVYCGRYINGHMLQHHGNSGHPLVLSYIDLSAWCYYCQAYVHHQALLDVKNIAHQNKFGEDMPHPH
Description: HDAC inhibition assays were performed by Reaction Biology Corporation (Malvern, PA). Full-length recombinant hHDAC 6 was expressed in a baculovirus expression system in SF9 cells. […] The reaction was stopped after 2 h at 30 °C . Trichostatin A was used as an internal control.

O=C(NO)c1ccc(Cn2c(=O)n(CCc3ccc(NCCOCCOCCOCCNc4ccc(CCn5c(=O)c6ccccc6n(Cc6ccc(C(=O)NO)cc6)c5=O)cc4)cc3)c(=O)c3ccccc32)cc1 [Compound 6a, 4-({3-[2-(4-{2-[2–(2-{2-[4-(2-{1-[(4-Hydroxamophenyl)methyl]-2,4-dioxoquinazolin-3-yl}ethyl)phenylamino]ethoxy}ethoxy)ethoxy]ethylamino}phenyl)ethyl]-2,4-dioxoquinazolin-1-yl}methyl)benzohydroxamic acid]
GI50 (PC-3 cells): > 30 µM | GI50 (A549 cells): > 30 µM | Ac-α-tubulin level (Western blot) (Ac-α-tubulin): unenhanced acetylated α-tubulin | solubility observed when conducting assays [1]: poor solubilities | IC50 (HDAC6): > 10 µM
